# Data: ChEMBL document CHEMBL3603790, “2- and 3-Fluoro-3-deazaneplanocins, 2-fluoro-3-deazaaristeromycins, and 3-methyl-3-deazaneplanocin: Synthesis and antiviral properties” (Bioorg Med Chem, 2015)
# Calls of active or inactive are those of the source. The rule behind the calls is not given here.
# Test system: not listed separately
# Experiment: Selectivity index, ratio of CC50 for HFF to IC50 for HCMV
# Assay type: functional
# Details: not given
row,SMILES,Ratio CC50/IC50
1,Nc1ncc(F)c2c1ncn2[C@@H]1C=C(CCO)[C@@H](O)[C@H]1O,759

# Test system: not listed separately
# Experiment: Selectivity index, ratio of CC50 for MDCK cells to IC50 for Influenza A virus H5N1 virus
# Assay type: functional
# Details: not given
row,SMILES,Ratio CC50/IC50
1,Nc1ncc(F)c2c1ncn2[C@@H]1C=C(CCO)[C@@H](O)[C@H]1O,>2.4

# Test system: not listed separately
# Experiment: Cytotoxicity against African green monkey Vero cells relative to control
# Assay type: cell-based
# Details: chlorocebus sabaeus
row,SMILES,CC50 [µM]
1,Nc1ncc(F)c2c1ncn2[C@@H]1C=C(CCO)[C@@H](O)[C@H]1O,109

# Test system: Cowpox virus
# Experiment: Antiviral activity against Cowpox virus infected in HFF after 3 days by neutral red dye-based plaque reduction assay
# Assay type: functional, organism-based
# Details: not given
row,SMILES,Activity
1,Nc1ncc(F)c2c1ncn2[C@@H]1C=C(CCO)[C@@H](O)[C@H]1O,inactive

# Test system: MA104
# Experiment: Antiviral activity against Parainfluenza virus infected in monkey MA104 cells after 3 days by neutral red dye-based plaque reduction assay
# Assay type: functional, cell-based
# Details: Paramyxoviridae
row,SMILES,Activity
1,Nc1ncc(F)c2c1ncn2[C@@H]1C=C(CCO)[C@@H](O)[C@H]1O,inactive

# Test system: not listed separately
# Experiment: Cytotoxicity against MDCK cells
# Assay type: cell-based, Canis lupus familiaris
# Details: dog, MDCK cells
row,SMILES,CC50 [µM]
1,Nc1ncc(F)c2c1ncn2[C@@H]1C=C(CCO)[C@@H](O)[C@H]1O,> 340

# Test system: Tacaribe virus
# Experiment: Antiviral activity against Tacaribe virus infected in African green monkey Vero 76 cells after 3 days by neutral red dye-based plaque reduction assay
# Assay type: functional, organism-based
# Details: Mammarenavirus tacaribeense, 72 h
row,SMILES,IC50 [µM]
1,Nc1ncc(F)c2c1ncn2[C@@H]1C=C(CCO)[C@@H](O)[C@H]1O,< 0.34

# Test system: Influenza A virus
# Experiment: Antiviral activity against Influenza A virus H3N2 infected in MDCK cells after 3 days by neutral red dye-based plaque reduction assay
# Assay type: functional, organism-based
# Details: not given
row,SMILES,Activity
1,Nc1ncc(F)c2c1ncn2[C@@H]1C=C(CCO)[C@@H](O)[C@H]1O,inactive

# Test system: not listed separately
# Experiment: Selectivity index, ratio of CC50 for African green monkey Vero 76 cells to IC50 for Tacaribe virus
# Assay type: functional
# Details: not given
row,SMILES,Ratio CC50/IC50
1,Nc1ncc(F)c2c1ncn2[C@@H]1C=C(CCO)[C@@H](O)[C@H]1O,>560

# Test system: not listed separately
# Experiment: Selectivity index, ratio of CC50 for African green monkey Vero cells to IC50 for Yellow fever virus
# Assay type: functional
# Details: not given
row,SMILES,Ratio CC50/IC50
1,Nc1ncc(F)c2c1ncn2[C@@H]1C=C(CCO)[C@@H](O)[C@H]1O,>240

# Test system: unidentified adenovirus
# Experiment: Antiviral activity against Adenovirus infected in human A549 cells after 3 days by neutral red dye-based plaque reduction assay
# Assay type: functional, organism-based
# Details: not given
row,SMILES,Activity
1,Nc1ncc(F)c2c1ncn2[C@@H]1C=C(CCO)[C@@H](O)[C@H]1O,inactive

# Test system: not listed separately
# Experiment: Cytotoxicity against MDCK cells relative to control
# Assay type: cell-based, Canis lupus familiaris
# Details: dog
row,SMILES,CC50 [µM]
1,Nc1ncc(F)c2c1ncn2[C@@H]1C=C(CCO)[C@@H](O)[C@H]1O,> 340

# Test system: SARS-CoV
# Experiment: Antiviral activity against SARS coronavirus infected in African green monkey Vero E6 cells after 3 days by neutral red dye-based plaque reduction assay
# Assay type: functional, organism-based
# Details: Severe acute respiratory syndrome-related coronavirus
row,SMILES,Activity
1,Nc1ncc(F)c2c1ncn2[C@@H]1C=C(CCO)[C@@H](O)[C@H]1O,inactive

# Test system: Yellow fever virus
# Experiment: Antiviral activity against Yellow fever virus infected in African green monkey Vero cells after 3 days by neutral red dye-based plaque reduction assay
# Assay type: functional, organism-based
# Details: 72 h
row,SMILES,IC50 [µM]
1,Nc1ncc(F)c2c1ncn2[C@@H]1C=C(CCO)[C@@H](O)[C@H]1O,1.5

# Test system: Vaccinia virus
# Experiment: Antiviral activity against Vaccinia virus infected in HEL cells after 3 days by neutral red dye-based plaque reduction assay
# Assay type: functional, organism-based
# Details: Orthopoxvirus vaccinia
row,SMILES,Activity
1,Nc1ncc(F)c2c1ncn2[C@@H]1C=C(CCO)[C@@H](O)[C@H]1O,inactive

# Test system: Venezuelan equine encephalitis virus
# Experiment: Antiviral activity against Venezuelan equine encephalitis virus infected in African green monkey Vero cells after 3 days by neutral red dye-based plaque reduction assay
# Assay type: functional, organism-based
# Details: not given
row,SMILES,Activity
1,Nc1ncc(F)c2c1ncn2[C@@H]1C=C(CCO)[C@@H](O)[C@H]1O,inactive

# Test system: Influenza A virus
# Experiment: Antiviral activity against Influenza A virus H1N1 infected in MDCK cells after 3 days by neutral red dye-based plaque reduction assay
# Assay type: functional, organism-based
# Details: not given
row,SMILES,Activity
1,Nc1ncc(F)c2c1ncn2[C@@H]1C=C(CCO)[C@@H](O)[C@H]1O,inactive

# Test system: HeLa
# Experiment: Cytotoxicity against human HeLa cells
# Assay type: cell-based
# Details: not given
row,SMILES,Activity
1,Nc1ncc(F)c2c1ncn2[C@@H]1C=C(CCO)[C@@H](O)[C@H]1O,Non-toxic

# Test system: Respiratory syncytial virus
# Experiment: Antiviral activity against Respiratory syncytial virus infected in monkey MA104 cells after 3 days by neutral red dye-based plaque reduction assay
# Assay type: functional, organism-based
# Details: not given
row,SMILES,Activity
1,Nc1ncc(F)c2c1ncn2[C@@H]1C=C(CCO)[C@@H](O)[C@H]1O,inactive

# Test system: Dengue virus
# Experiment: Antiviral activity against Dengue virus infected in African green monkey Vero cells after 3 days by neutral red dye-based plaque reduction assay
# Assay type: functional, organism-based
# Details: 72 h
row,SMILES,IC50 [µM]
1,Nc1ncc(F)c2c1ncn2[C@@H]1C=C(CCO)[C@@H](O)[C@H]1O,15

# Test system: not listed separately
# Experiment: Cytotoxicity against African green monkey Vero 76 cells relative to control
# Assay type: cell-based
# Details: chlorocebus sabaeus
row,SMILES,CC50 [µM]
1,Nc1ncc(F)c2c1ncn2[C@@H]1C=C(CCO)[C@@H](O)[C@H]1O,190

# Test system: not listed separately
# Experiment: Cytotoxicity against African green monkey Vero 76 cells
# Assay type: cell-based
# Details: chlorocebus sabaeus, Vero 76 cells
row,SMILES,CC50 [µM]
1,Nc1ncc(F)c2c1ncn2[C@@H]1C=C(CCO)[C@@H](O)[C@H]1O,3.4

# Test system: not listed separately
# Experiment: Selectivity index, ratio of CC50 for African green monkey Vero cells to IC50 for Dengue virus
# Assay type: functional
# Details: not given
row,SMILES,Ratio CC50/IC50
1,Nc1ncc(F)c2c1ncn2[C@@H]1C=C(CCO)[C@@H](O)[C@H]1O,7.3

# Test system: not listed separately
# Experiment: Cytotoxicity against HFF
# Assay type: cell-based
# Details: human, HFF cells
row,SMILES,CC50 [µM]
1,Nc1ncc(F)c2c1ncn2[C@@H]1C=C(CCO)[C@@H](O)[C@H]1O,> 300

# Test system: not listed separately
# Experiment: Selectivity index, ratio of CC50 for MDCK cells to IC50 for Influenza B virus
# Assay type: functional
# Details: not given
row,SMILES,Ratio CC50/IC50
1,Nc1ncc(F)c2c1ncn2[C@@H]1C=C(CCO)[C@@H](O)[C@H]1O,>340

# Test system: not listed separately
# Experiment: Cytotoxicity against human HeLa Ohio-1 cells
# Assay type: cell-based
# Details: not given
row,SMILES,Activity
1,Nc1ncc(F)c2c1ncn2[C@@H]1C=C(CCO)[C@@H](O)[C@H]1O,Non-toxic

# Test system: Enterovirus
# Experiment: Antiviral activity against Rhinovirus infected in human HeLa Ohio-1 cells after 3 days by neutral red dye-based plaque reduction assay
# Assay type: functional, organism-based
# Details: not given
row,SMILES,Activity
1,Nc1ncc(F)c2c1ncn2[C@@H]1C=C(CCO)[C@@H](O)[C@H]1O,inactive

# Test system: West Nile virus
# Experiment: Antiviral activity against WNV infected in African green monkey Vero 76 cells after 3 days by neutral red dye-based plaque reduction assay
# Assay type: functional, organism-based
# Details: not given
row,SMILES,Activity
1,Nc1ncc(F)c2c1ncn2[C@@H]1C=C(CCO)[C@@H](O)[C@H]1O,inactive

# Test system: not listed separately
# Experiment: Cytotoxicity against monkey MA104 cells
# Assay type: cell-based, Macaca mulatta
# Details: rhesus monkey
row,SMILES,Activity
1,Nc1ncc(F)c2c1ncn2[C@@H]1C=C(CCO)[C@@H](O)[C@H]1O,Non-toxic

# Test system: A549
# Experiment: Cytotoxicity against human A549 cells
# Assay type: cell-based
# Details: not given
row,SMILES,Activity
1,Nc1ncc(F)c2c1ncn2[C@@H]1C=C(CCO)[C@@H](O)[C@H]1O,Non-toxic

# Test system: Human betaherpesvirus 5
# Experiment: Antiviral activity against HCMV infected in HFF after 3 days by neutral red dye-based plaque reduction assay
# Assay type: functional, organism-based
# Details: Human betaherpesvirus 5, 72 h
row,SMILES,IC50 [µM]
1,Nc1ncc(F)c2c1ncn2[C@@H]1C=C(CCO)[C@@H](O)[C@H]1O,5.1

# Test system: Rift Valley fever virus
# Experiment: Antiviral activity against Rift Valley fever virus infected in African green monkey Vero 76 cells after 3 days by neutral red dye-based plaque reduction assay
# Assay type: functional, organism-based
# Details: 72 h
row,SMILES,IC50 [µM]
1,Nc1ncc(F)c2c1ncn2[C@@H]1C=C(CCO)[C@@H](O)[C@H]1O,1.3

# Test system: Influenza B virus
# Experiment: Antiviral activity against Influenza B virus infected in MDCK cells after 3 days by neutral red dye-based plaque reduction assay
# Assay type: functional, organism-based
# Details: 72 h
row,SMILES,IC50 [µM]
1,Nc1ncc(F)c2c1ncn2[C@@H]1C=C(CCO)[C@@H](O)[C@H]1O,1

# Test system: not listed separately
# Experiment: Selectivity index, ratio of CC50 for African green monkey Vero 76 cells to IC50 for Rift Valley fever virus
# Assay type: functional
# Details: not given
row,SMILES,Ratio CC50/IC50
1,Nc1ncc(F)c2c1ncn2[C@@H]1C=C(CCO)[C@@H](O)[C@H]1O,2.6

# Test system: Respiratory syncytial virus
# Experiment: Antiviral activity against Respiratory syncytial virus infected in human HeLa cells after 3 days by neutral red dye-based plaque reduction assay
# Assay type: functional, organism-based
# Details: not given
row,SMILES,Activity
1,Nc1ncc(F)c2c1ncn2[C@@H]1C=C(CCO)[C@@H](O)[C@H]1O,inactive

# Test system: HEL
# Experiment: Cytotoxicity against HEL cells
# Assay type: cell-based
# Details: human
row,SMILES,Activity
1,Nc1ncc(F)c2c1ncn2[C@@H]1C=C(CCO)[C@@H](O)[C@H]1O,Non-toxic

# Test system: not listed separately
# Experiment: Cytotoxicity against African green monkey Vero cells
# Assay type: cell-based
# Details: chlorocebus sabaeus, Vero cells
row,SMILES,CC50 [µM]
1,Nc1ncc(F)c2c1ncn2[C@@H]1C=C(CCO)[C@@H](O)[C@H]1O,> 340

# Molecular target: not listed separately
# Experiment: Inhibition of rabbit erythrocytic AdoHcy hydrolase using AdoHcy as substrate assessed as formation of L-homocysteine preincubated for 5 mins followed by substrate addition measured after 1 hr by thiol quantitation reagent-based assay
# Set-up: species or system Oryctolagus cuniculus
# Details: not given
row,SMILES,IC50 [µM]
1,Nc1ncc(F)c2c1ncn2[C@@H]1C=C(CCO)[C@@H](O)[C@H]1O,0.145

# Test system: Influenza A virus
# Experiment: Antiviral activity against Influenza A virus H5N1 infected in MDCK cells after 3 days by neutral red dye-based plaque reduction assay
# Assay type: functional, organism-based
# Details: 72 h
row,SMILES,IC50 [µM]
1,Nc1ncc(F)c2c1ncn2[C@@H]1C=C(CCO)[C@@H](O)[C@H]1O,139

# Test system: not listed separately
# Experiment: Cytotoxicity against African green monkey Vero E6 cells
# Assay type: cell-based
# Details: chlorocebus sabaeus
row,SMILES,Activity
1,Nc1ncc(F)c2c1ncn2[C@@H]1C=C(CCO)[C@@H](O)[C@H]1O,Non-toxic
